Here are results for 2 compounds from patent US20190184069A1, “ANTIMICROBIAL COMPOSITIONS COMPRISING MINOCYCLINE AND DEGRADATION PRODUCTS OF OXIDIZED CELLULOSE” (Omrix Biopharmaceuticals Ltd., priority 2017, published 2019).

For experiment [1], the system named is S. aureus. As to the kind of experiment: Secondary stage: bacterial growth (ET50/MIC) of antibiotics with or without extract of degradation products of ORC. The format is cell-based, Staphylococcus aureus. The text has this: ORC pads which had not been impregnated with antibiotic (referred to herein as “blank ORC pads”), were subjected to extraction and degradation in PBS for three hours at ambient temperature. Extract obtained from these blank ORC pads is referred to herein as “blank extract of degradation products of ORC”.
Blank ORC pads were subjected to extraction and degradation in a solution of antibiotic in PBS. Extracts of degradation products obtained from blank ORC pads in a solution of antibiotic in PBS is referred to herein as “extracts of degradation products of blank ORC in antibiotic”.
Due to the acidity of ORC, which provides some antibiotic effect, the size of the pad used was small i.e. approximately 1×1.5 inch, weighing between 65-75 mg (70 mg on average) in order to prevent the ORC from affecting the final pH of the assay and therefore the growth of the bacteria.
15 ml tubes, each containing 3 ml of an antibiotic solution at a known concentration in sterile PBS, were prepared in duplicate.
Blank ORC pads were subjected to extraction and degradation in the antibiotic solution by immersing the ORC pads in the antibiotic solution for 3-5 hours at ambient temperature on a roller mixer (Stuart, Cat#SRT9D).
Blank extract of degradation products of ORC and extract in antibiotic of degradation products of ORC, prepared as described above, were diluted 10 folds in MHBII in sterile 15 ml capped tubes.
The 5×10^6 CFU/ml stock suspension which had been prepared in advance was transferred into a reservoir and 10 μl of the stock suspension were added into each well of columns 2-11 using a multichannel pipette to obtain a final 5×10^5 CFU/ml suspension.
Columns 3 to 6, rows B to F, were filled with the Blank ORC extracted in antibiotic at decreasing concentrations 1 to 5, diluted 10 folds in MHBII. Each sample tested was placed in 4 well repeats for statistical results.
Columns 7 to 10, rows B to F, were filled with the antibiotic solution (AB) at decreasing concentrations 1 to 5, diluted 10 folds in MHBII. Each sample tested was placed in 4 well repeats for statistical results.
Columns 3 to 6, row G, were filled with the blank extract of degradation products of ORC (PBS-ORC) diluted 10 folds in MHBII.
The plate was incubated at 37° C. with shaking in the ELISA reader and the optical density at 600 nm was read every 20 minutes for a total of 18 hours.
The average and standard deviation for OD readings was calculated for each time point of the wells using Excel. The average values were plotted against time to obtain a graph of the bacterial growth curves in the presence of each of the antibiotics tested.
In some cases, the average OD was plotted for a single endpoint of 800 minutes for the various antibiotic treatments and controls.
The average values were also entered into the GraphPad Prism program (GraphPad Software Inc., CA, USA) in order to calculate the Effective Time 50 (ET50) i.e. the time, in minutes, required for the antibiotic to induce a response halfway between the baseline and maximum, where the maximum is the bacterial growth in MHBII with PBS. This provides a quantifiable measure of the efficacy of the antibiotics tested and enables comparison of the various samples tested.

The subject of experiment [2] is S. aureus. The conditions noted are these: cited from earlier work.

The structures appear in SMILES notation. “Also recorded” adds a separate entry of the source. Bounds are passed on as bounds.

With `CN(C)c1ccc(O)c2c1C[C@H]1C[C@H]3[C@H](N(C)C)C(O)=C(C(N)=O)C(=O)[C@@]3(O)C(O)=C1C2=O` [Minocycline, minocycline], the ET50 in the experiment on S. aureus [1] (minocycline 0.05 μg/ml, +ORC degradation products) is 901.1 min; in the experiment with S. aureus [1] (minocycline 0.05 μg/ml, +ORC degradation products, listed as minocycline) it was 901 min; with S. aureus [1] (minocycline 0.05 μg/ml, −ORC) it was 428.1 min; with S. aureus [1] (minocycline 0.1 μg/ml, +ORC degradation products), >2000 min; in the experiment on S. aureus [1] (minocycline 0.1 μg/ml, +ORC degradation products, listed as minocycline), “over 2000 minutes”; in the experiment on S. aureus [1] (minocycline 0.1 μg/ml, −ORC), 555.1 min. In addition, the ET50 is 555 min in the experiment with S. aureus [1] (minocycline 0.1 μg/ml, −ORC, listed as minocycline); >2000 min with S. aureus [1] (minocycline 0.2 μg/ml, +ORC degradation products); “over 2000 minutes” in the experiment with S. aureus [1] (minocycline 0.2 μg/ml, +ORC degradation products, listed as minocycline); 1771 min in the experiment with S. aureus [1] (minocycline 0.2 μg/ml, −ORC); >2000 min with S. aureus [1] (minocycline 0.4 μg/ml, +ORC degradation products); >2000 min with S. aureus [1] (minocycline 0.4 μg/ml, −ORC). The ET50 entry in the experiment on S. aureus [1] (minocycline 0.4 μg/ml, −ORC, listed as minocycline) is “above 2000 minutes”; with S. aureus [1] (minocycline 0.5 μg/ml, +ORC degradation products), >2000 min; in the experiment with S. aureus [1] (minocycline 0.5 μg/ml, −ORC), >2000 min.
On to `CO[C@H]1/C=C/O[C@@]2(C)Oc3c(C)c(O)c4c(O)c(c(/C=N/N5CCN(C)CC5)c(O)c4c3C2=O)NC(=O)/C(C)=C\C=C\[C@H](C)[C@H](O)[C@@H](C)[C@@H](O)[C@@H](C)[C@H](OC(C)=O)[C@@H]1C` [Rifampin, rifampin], for which the “Effect of addition of degradation products of ORC on the antibiotic activity” value with S. aureus [1] (antibiotic with versus without ORC degradation products) is “reduction in the antibiotic activity; also recorded: interfere with the antibiotic activity; also recorded: lowering of the antibiotic activity; also recorded: impaired”. Besides, the ET50 in the experiment on S. aureus [1] (rifampin 0.015 μg/ml, +ORC degradation products) worked out at 440.5 min; in the experiment on S. aureus [1] (rifampin 0.015 μg/ml, −ORC), 470.7 min; in the experiment with S. aureus [1] (rifampin 0.031 μg/ml, +ORC degradation products), 436.3 min; with S. aureus [1] (rifampin 0.031 μg/ml, −ORC) it was 448.4 min; with S. aureus [1] (rifampin 0.062 μg/ml, +ORC degradation products), 432.8 min; in the experiment with S. aureus [1] (rifampin 0.062 μg/ml, +ORC degradation products, listed as rifampin) it was 430 min. The ET50 in the experiment with S. aureus [1] (rifampin 0.062 μg/ml, −ORC) was 669.1 min; with S. aureus [1] (rifampin 0.125 μg/ml, +ORC degradation products) it was 432.3 min; in the experiment on S. aureus [1] (rifampin 0.125 μg/ml, +ORC degradation products, listed as rifampin), “around 430 minutes”; in the experiment on S. aureus [1] (rifampin 0.125 μg/ml, −ORC), “no growth at all”; in the experiment with S. aureus [1] (rifampin 0.25 μg/ml, +ORC degradation products), 430.8 min; with S. aureus [1] (rifampin 0.25 μg/ml, +ORC degradation products, listed as rifampin) it was “around 430 minutes”. In addition, the ET50 result in the experiment on S. aureus [1] (rifampin 0.25 μg/ml, −ORC) is reported as “no growth at all”. The “MIC values for S. aureus according to the literature” value in the experiment on S. aureus [2] is 4 to 15 ng/mL.
